This is an account of results in publication PMC11971087, “Unveiling the in vitro activity of extracted Euphorbia trigona via Supercritical Fluid Extraction against pathogenic yeasts, obesity, cancer, and its wound healing properties” (Bioresources and Bioprocessing, 2025).

The target of the assay is T1, lipase.
T1 construct: gene PNLIP; pig pancreas is only the usual preparation
The experiment in a line: 4-nitrophenyl butyrate hydrolysis, absorbance at […] nm. It is filed as biochemical. The note with it: potassium phosphate pH 7.0, 37 °C, 10 min, standard drug, covalent.

In brackets after ≈: the same amount, converted by molar mass.

A word on the IC50: it is the midpoint of a concentration-inhibition curve. High values mean weaker potency, low ones greater potency. Molecule `CCCCCCCCCCC[C@@H](C[C@@H]1OC(=O)[C@H]1CCCCCC)OC(=O)[C@H](CC(C)C)NC=O` [Orlistat] yielded a concentration for half-maximal inhibition (IC50) of 6.4 µg/mL (≈ 12.9 µM).
